Data reported in ChEMBL document CHEMBL1201862, “PubChem BioAssay data set” (2004).
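Cells were grown in 96-well plates and exposed to each compound for 48 hours at five concentrations; endpoints were interpolated linearly between bracketing concentrations, or set to the highest concentration if not reached. Here, GI50 denotes the concentration required for 50% inhibition of growth.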 Calls of active or inactive are those of the source. Cut-off read from the data, not from the text of the source: active = GI50 up to about 1.1 µM and inactive = higher.

What was measured:
Test in all cases: inhibition of tumour cell growth, NCI panel, 48 h
A498 = test system: A498
ACHN = test system: ACHN
DU-145 = test system: DU-145
EKVX = test system: EKVX
HOP-62 = test system: HOP-62
HOP-92 = test system: HOP-92
KM12 = test system: KM12
MDA-MB-435 = test system: MDA-MB-435
MDA-N = test system: MDA-N
Malme-3M = test system: Malme-3M
OVCAR-3 = test system: OVCAR-3
OVCAR-4 = test system: OVCAR-4
OVCAR-8 = test system: OVCAR-8
PC-3 = test system: PC-3
SF-268 = test system: SF-268
SNB-19 = test system: SNB-19
SNB-75 = test system: SNB-75
SR = test system: SR
SW-620 = test system: SW-620
HL-60 = test system: HL-60

Row | Structure (SMILES) | GI50 (A498) | GI50 (ACHN) | GI50 (DU-145) | GI50 (EKVX) | GI50 (HOP-62) | GI50 (HOP-92) | GI50 (KM12) | GI50 (MDA-MB-435) | GI50 (MDA-N) | GI50 (Malme-3M) | GI50 (OVCAR-3) | GI50 (OVCAR-4) | GI50 (OVCAR-8) | GI50 (PC-3) | GI50 (SF-268) | GI50 (SNB-19) | GI50 (SNB-75) | GI50 (SR) | GI50 (SW-620) | GI50 (HL-60)
1 | Cc1ccc(C2(c3ccc(C)c(O)c3C)CCN(C)CC2)c(C)c1O | 41.7 µM (inactive) | > 100 µM (inactive) | > 100 µM (inactive) | 44.4 µM (inactive) | 51.2 µM (inactive) | > 100 µM (inactive) | 46.5 µM (inactive) | 92.9 µM (inactive) | 58.5 µM (inactive) | 52.7 µM (inactive) | 54 µM (inactive) | > 100 µM (inactive) | > 100 µM (inactive) | 35 µM (inactive) | > 100 µM (inactive) | 62.4 µM (inactive) | > 100 µM (inactive) | 49.8 µM (inactive) | 88.1 µM (inactive) | 
2 | COc1ccc2nc3cccc([N+](=O)[O-])c3c(NCCC(=O)O)c2c1 | > 10 µM (inactive) | > 10 µM (inactive) | > 10 µM (inactive) | > 10 µM (inactive) | > 10 µM (inactive) | > 10 µM (inactive) | > 10 µM (inactive) | > 10 µM (inactive) | > 10 µM (inactive) | 4.51 µM (inactive) | > 10 µM (inactive) | > 10 µM (inactive) | > 10 µM (inactive) | > 10 µM (inactive) | > 10 µM (inactive) | > 10 µM (inactive) | > 10 µM (inactive) | > 10 µM (inactive) | > 10 µM (inactive) | > 10 µM (inactive)
3 | O=[N+]([O-])c1cccnc1NCC1(CO)CCCC1 | 39.6 µM (inactive) | 27 µM (inactive) | 36 µM (inactive) | 27.8 µM (inactive) | 33 µM (inactive) | 23.4 µM (inactive) |  | 22.4 µM (inactive) | 21.4 µM (inactive) | 20.7 µM (inactive) | 19.8 µM (inactive) | 36.5 µM (inactive) | 19.4 µM (inactive) | 19.1 µM (inactive) | 32.2 µM (inactive) | 56.4 µM (inactive) | 15.9 µM (inactive) | 25.4 µM (inactive) | 25.7 µM (inactive) | 22.4 µM (inactive)
4 | CC1=N[C@](C)(C2CC3C=CC2C3=O)COC1=O (stereo partly drawn) | > 100 µM (inactive) | > 100 µM (inactive) | > 100 µM (inactive) | > 100 µM (inactive) | > 100 µM (inactive) | > 100 µM (inactive) | > 100 µM (inactive) | > 100 µM (inactive) | > 100 µM (inactive) | > 100 µM (inactive) | > 100 µM (inactive) | > 100 µM (inactive) | > 100 µM (inactive) | > 100 µM (inactive) | > 100 µM (inactive) | > 100 µM (inactive) | > 100 µM (inactive) | > 100 µM (inactive) | > 100 µM (inactive) | > 100 µM (inactive)
5 | O=C1c2ccccc2-n2c1nc1ccccc1c2=O [TRYPTANTHRIN] | 18.2 µM (inactive) | 2 µM (inactive) | 10.7 µM (inactive) | 13.4 µM (inactive) | 12.1 µM (inactive) | 44.5 µM (inactive) | 6.62 µM (inactive) | 1.85 µM (inactive) | 18.2 µM (inactive) | 13.4 µM (inactive) | 4.54 µM (inactive) | 19.1 µM (inactive) | 5.79 µM (inactive) | 0.649 µM (active) | 19.9 µM (inactive) | 25 µM (inactive) | 30.8 µM (inactive) | 8.47 µM (inactive) | 20.8 µM (inactive) | 3.71 µM (inactive)
6 | CC(=O)OCC1OC(n2c(C)c(C(C)=O)c(-c3cccc4ccccc34)c(C#N)c2=S)C(OC(C)=O)C(OC(C)=O)C1OC(C)=O (stereo not drawn) | > 100 µM (inactive) | > 100 µM (inactive) | > 100 µM (inactive) | > 100 µM (inactive) | > 100 µM (inactive) | 17.5 µM (inactive) | > 100 µM (inactive) | > 100 µM (inactive) | > 100 µM (inactive) | > 100 µM (inactive) | > 100 µM (inactive) | > 100 µM (inactive) | > 100 µM (inactive) | > 100 µM (inactive) | > 100 µM (inactive) | > 100 µM (inactive) | 25.9 µM (inactive) | > 100 µM (inactive) | > 100 µM (inactive) | > 100 µM (inactive)
7 | O=c1ssc(Cl)c1Cl | > 10 µM (inactive) | > 7.26 µM (inactive) | > 10 µM (inactive) | > 10 µM (inactive) | > 10 µM (inactive) | > 10 µM (inactive) | > 10 µM (inactive) | > 10 µM (inactive) | > 10 µM (inactive) | > 6.11 µM (inactive) | > 10 µM (inactive) | > 5.6 µM (inactive) | > 10 µM (inactive) | > 10 µM (inactive) | > 10 µM (inactive) | > 10 µM (inactive) | > 10 µM (inactive) | > 10 µM (inactive) | 3.55 µM (inactive) | 2.47 µM (inactive)
8 | CC1=C2C(=O)O[C@@H](c3ccoc3)[C@]2(C)CCC1=O [FRAXINELLONONE] | > 100 µM (inactive) | > 100 µM (inactive) | > 100 µM (inactive) | > 100 µM (inactive) | > 100 µM (inactive) | > 100 µM (inactive) | > 100 µM (inactive) | > 100 µM (inactive) | > 100 µM (inactive) |  | > 100 µM (inactive) |  | > 100 µM (inactive) | > 100 µM (inactive) |  | > 100 µM (inactive) | > 100 µM (inactive) | > 100 µM (inactive) | > 100 µM (inactive) | 
9 | Nc1ncnc2c1ncn2[C@H]1CC[C@@H](NO)C1 | > 100 µM (inactive) | > 100 µM (inactive) | > 100 µM (inactive) | > 100 µM (inactive) | > 100 µM (inactive) | > 100 µM (inactive) | > 100 µM (inactive) | > 100 µM (inactive) | > 100 µM (inactive) | > 100 µM (inactive) | > 100 µM (inactive) | > 100 µM (inactive) | > 100 µM (inactive) | > 100 µM (inactive) | > 100 µM (inactive) | > 100 µM (inactive) | > 100 µM (inactive) | > 100 µM (inactive) | > 100 µM (inactive) | 
10 | CC(=O)Nc1ccc(NC(=O)CC(=O)Nc2ccc(NC(C)=O)cc2)cc1 | > 100 µM (inactive) | > 100 µM (inactive) | > 100 µM (inactive) | > 100 µM (inactive) |  | > 100 µM (inactive) | > 100 µM (inactive) | > 100 µM (inactive) | > 100 µM (inactive) | > 100 µM (inactive) | > 100 µM (inactive) | > 100 µM (inactive) | > 100 µM (inactive) | > 100 µM (inactive) | > 100 µM (inactive) | > 100 µM (inactive) |  | > 100 µM (inactive) | > 100 µM (inactive) | > 100 µM (inactive)
11 | Cc1nc2c(sc3nc4ccccc4n32)c(=O)[nH]1 | > 100 µM (inactive) | > 100 µM (inactive) | > 100 µM (inactive) | > 100 µM (inactive) | > 100 µM (inactive) | > 100 µM (inactive) | > 100 µM (inactive) | > 100 µM (inactive) | > 100 µM (inactive) | > 100 µM (inactive) | > 100 µM (inactive) | > 100 µM (inactive) | 42.5 µM (inactive) | > 100 µM (inactive) | > 100 µM (inactive) | > 100 µM (inactive) | > 100 µM (inactive) | > 100 µM (inactive) | > 100 µM (inactive) | 
12 | N#CC1(C#N)C(C#N)(C#N)C1(C#N)C(N)=O | > 100 µM (inactive) | > 100 µM (inactive) | > 100 µM (inactive) | > 100 µM (inactive) | > 100 µM (inactive) | > 100 µM (inactive) | > 100 µM (inactive) | > 100 µM (inactive) | > 100 µM (inactive) | > 100 µM (inactive) |  | > 100 µM (inactive) | > 100 µM (inactive) | > 100 µM (inactive) | > 100 µM (inactive) | > 100 µM (inactive) |  | > 100 µM (inactive) | > 100 µM (inactive) | > 100 µM (inactive)
13 | C[C@@H]1CC[C@@]2(C)C(C(=O)O)=CCCC2[C@@]1(C)CC(=O)c1ccoc1 (stereo partly drawn) | > 25 µM (inactive) | > 25 µM (inactive) | > 25 µM (inactive) | > 25 µM (inactive) |  | > 25 µM (inactive) | > 25 µM (inactive) | > 25 µM (inactive) | > 25 µM (inactive) |  | > 25 µM (inactive) | > 25 µM (inactive) | > 25 µM (inactive) | > 25 µM (inactive) | > 25 µM (inactive) | > 25 µM (inactive) | > 25 µM (inactive) | > 25 µM (inactive) | > 25 µM (inactive) | > 25 µM (inactive)
14 | CN(C)CCCNc1c(C#N)[n+]([O-])c2cc(Cl)ccc2[n+]1[O-] | 22.1 µM (inactive) | 5.5 µM (inactive) | 21.2 µM (inactive) | 5.78 µM (inactive) | 11.4 µM (inactive) | 2.69 µM (inactive) | 7.73 µM (inactive) | 17.3 µM (inactive) | 17.7 µM (inactive) | 3.85 µM (inactive) | 5.68 µM (inactive) | 4.75 µM (inactive) | 11.7 µM (inactive) | 4.91 µM (inactive) | 8.89 µM (inactive) | 26.2 µM (inactive) | 31.9 µM (inactive) | 0.867 µM (active) | 9.14 µM (inactive) | 
15 | O=c1ssc2ncccc12 | 59.3 µM (inactive) | 17.4 µM (inactive) | 33.7 µM (inactive) | 30.2 µM (inactive) | 20.7 µM (inactive) | > 100 µM (inactive) | 20.1 µM (inactive) | 15.4 µM (inactive) | 19 µM (inactive) | 19.8 µM (inactive) | 18.4 µM (inactive) |  |  | 44 µM (inactive) | 22.1 µM (inactive) | 39.2 µM (inactive) | 14.4 µM (inactive) | 48.2 µM (inactive) | 19.7 µM (inactive) | 42.4 µM (inactive)
